Measured values published in patent US20230285346A1, “METHODS OF USING FTO INHIBITORS FOR THE TREATMENT OF PULMONARY HYPERTENSION” (Ann and Robert H. Lurie Children's Hospital of Chicago, priority 2022, published 2023).

How the values were obtained:
MCT-induced PH in rats = experiment: monocrotaline (MCT)-induced rat PH model; type: in vivo, Sprague Dawley (SD) rats
Description: FIGS. 15A, 15B, 15C, 15D, and 15E. […] (A) FB-23-2 chemical structure. (B) Hemodynamic measurement showing decreased RVSP in FB23-2-treated MCT rats. (C) FB23-2 treatment attenuated RV hypertrophy. (D) Representative micrographs of pentachrome staining showing a markedly thickened vessel in Vehicle-treated MCT rats whereas normalized thickness of vessel walls in FB23-2-treated rats. At 2 weeks post-MCT challenge, the rats were treated with either PBS or FB23-2 (3 mg/kg, i.p. twice a day) for 2 weeks. V=vessel, Br=Bronchiole. Scale bar, 20 μm. […] Student's t test.
FIGS. 17A, 17B, and 17C. Decreased RVSP and RV hypertrophy in Meclofenamate-treated MCT rats. (A) representative tracings of RVSP measurement. Mec=Meclofenamate. […] (C) Reduced RV hypertrophy in Meclofenamate-treated MCT rats. CTL, control rats without MCT treatment. *P<0.05; **P<0.01. One-way ANOVA.
FIGS. 18A and 18B. Inhibited pulmonary vascular remodeling in Meclofenamate-treated MCT rats. (A) Representative micrographs of pentachrome staining showing a markedly thickened vessel in PBS-treated MCT rats whereas normalized thickness of vessel walls in Meclofenamate-treated rats. At 2 weeks post-MCT challenge, the rats were treated with either PBS or Meclofenamate for 2 weeks. V=vessel, Br=Bronchiole. Scale bar, 20 μm. (B). Quantification of pulmonary artery (PA) wall thickness. CTL=control rats without MCT treatment. *P<0.05. One-way ANOVA.
FIGS. 19A and 19B. Improved right heart contractility and pulmonary arterial function in Meclofenamate-treated MCT rats. At 2 weeks post-MCT, the rats were treated with either PBS or Meclofenamate for 2 weeks and then subject to echocardiography for assessment of right heart contractility determined by RV fraction area changes (RV FAC) (A), and of pulmonary arterial function by PA acceleration time/ejection time ratio (PA AT/ET) (B). ** P<0.01. Student t test.
Inhibited Arginase expression in lung ECs of Fto^Tie2Cre mice following chronic hypoxia. To identify potential FTO targets in lung ECs, RNA was isolated from lung ECs of WT mice and Fto^Tie2Cre mice at normoxia, 3 days, and 21 days hypoxia for RNA sequencing analysis. Arg1 is one of the top 10 genes induced in hypoxic WT mice but not in hypoxic Fto^Tie2Cre mice. […] It has been shown that substrate L-Arginine levels inversely correlate to PA pressure in patients (19). […] Increased Arginase expression and activity in lung ECs leads to reduced substrate L-Arginine for nitric oxide (NO) synthesis by eNOS and thus impairs NO production (21, 22). Low NO levels affect vasotone and smooth muscle cell growth. […] FTO deficiency reduces the stability of ARG2 mRNA in human PAECs. To determine whether ARG2 (the major isoform in human ECs) is a target of FTO in human PAECs, a stability assay was carried out and the effect of FTO on the decay of ARG2 mRNA was assessed. FTO-silenced and control PAECs were treated with 5 μg/mL actinomycin D to stop the new transcriptional process. Total RNA was then isolated at 0, 3, 6 h post-actinomycin D treatment and quantified by QRT-PCR analysis. The relative ARG2 level was calculated and normalized to β-actin and the ARG2 mRNA half-life time (t1/2) was estimated according to the linear regression analysis (9). […] Increased m^6A demethylase activity and FTO expression in PAECs from IPAH patients compared to donor ECs and FTO-dependent upregulation of ARG2 expression in PAECs of IPAH patients. […] Furthermore, methylated RNA immunoprecipitation (MeRIP)-QRT-PCR analysis confirmed a marked decrease of m^6A ARG2 in IPAH ECs compared to normal ECs from unused donors (FIG. 10). • 7. SMC-specific Fto deletion inhibits hypoxia-induced PH in mice. To determine whether FTO is essential for medial thickening and muscularization of distal pulmonary vessels and development of PAH, novel tamoxifen-inducible Fto^iΔSMC mice were generated by breeding Fto-floxed mice into the genetic background of Myh11-CreER^T2 mice. […]

FTO = FTO (Homo sapiens, UniProt Q9C0B1); settings: FTO versus ALKBH5; cited from earlier work
[1] = FB23-2 3 mg/kg, i.p. twice a day for 2 weeks, vs vehicle-treated MCT rats

FTO, sequence (Q9C0B1 whole entry): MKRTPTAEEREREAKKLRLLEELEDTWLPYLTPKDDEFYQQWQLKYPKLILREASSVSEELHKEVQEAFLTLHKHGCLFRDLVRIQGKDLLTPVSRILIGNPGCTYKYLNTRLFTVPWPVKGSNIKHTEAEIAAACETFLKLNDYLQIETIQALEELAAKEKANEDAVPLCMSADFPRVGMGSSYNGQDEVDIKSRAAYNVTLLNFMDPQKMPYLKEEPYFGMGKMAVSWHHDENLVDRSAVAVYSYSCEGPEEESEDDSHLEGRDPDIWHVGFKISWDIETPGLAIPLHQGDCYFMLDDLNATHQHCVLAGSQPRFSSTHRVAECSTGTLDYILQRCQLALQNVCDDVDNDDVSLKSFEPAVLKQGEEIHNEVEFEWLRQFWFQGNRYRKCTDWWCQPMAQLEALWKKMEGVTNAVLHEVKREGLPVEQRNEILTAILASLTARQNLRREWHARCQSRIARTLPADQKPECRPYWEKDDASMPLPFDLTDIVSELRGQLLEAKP

With `Cc1noc(C)c1-c1cc(Cl)c(Nc2ccccc2C(=O)NO)c(Cl)c1` [FB23-2] the “MCT-induced RVSP increase” value (MCT-induced PH in rats; FB23-2 3 mg/kg, i.p. twice a day for 2 weeks from 2 weeks post-MCT, measured 4 weeks post-MCT, vs vehicle) was “markedly reduced”, the “RV hypertrophy determined by RV/LV+septum ratio” value (MCT-induced PH in rats; FB23-2 3 mg/kg, i.p. twice a day for 2 weeks from 2 weeks post-MCT, vs vehicle) was “markedly reduced” and the “pulmonary arterial function (echocardiography, PA AT/ET)” value (MCT-induced PH in rats; [1]) was “improved pulmonary arterial function”. For the same compound, the “pulmonary vascular remodeling (vessel wall thickness, pentachrome staining)” value (MCT-induced PH in rats; [1]) was “reduced pulmonary vascular remodeling”.

In the case of `Cc1ccc(Cl)c(Nc2ccccc2C(=O)O)c1Cl` [Meclofenamate sodium], the RVSP (MCT-induced PH in rats; Meclofenamate 10 mg/kg, p.o., twice a day for 2 weeks from 2 weeks post-MCT, vs PBS-treated MCT rats) is reported as “drastically decreased”, the “MCT-induced RV hypertrophy” value (MCT-induced PH in rats; Meclofenamate 10 mg/kg, p.o., twice a day for 2 weeks, vs PBS-treated MCT rats) is reported as “markedly reduced” and the “PA wall thickness (pentachrome staining; pulmonary vascular remodeling)” value (MCT-induced PH in rats; Meclofenamate 10 mg/kg, p.o., twice a day for 2 weeks, vs untreated MCT-rats) is reported as “markedly reduced”. The “right heart contractility, RV fraction area changes (RV FAC), echocardiography” value (MCT-induced PH in rats; Meclofenamate for 2 weeks from 2 weeks post-MCT, decrease seen in PBS-treated MCT rats) was “reversed”, the “ratio of PA acceleration time/ejection time (PA AT/ET)” value (MCT-induced PH in rats; Meclofenamate for 2 weeks from 2 weeks post-MCT, vs PBS-treated MCT rats) was “marked increase” and the “selectivity of FTO inhibition” value (FTO) was “selective over ALKBH5”.
